Data reported in patent EP4506005A1, “JAK-INHIBITOR FOR THE TREATMENT OF TEN, SJS AND SJS/TEN OVERLAP” (Max-Planck-Gesellschaft zur Förderung der Wissenschaften …, priority 2023, dated 2025).
“Also recorded” adds a separate entry of the source.

Key:
[1] = cited from earlier work
DRESS = conditions: earlier report; cited from earlier work
mouse model of TEN = test: Smac mimetic TEN mouse model
primary keratinocytes = test: Live-cell imaging co-culture assay of patient-derived keratinocytes with matched PBMCs
Description: Concurrently, patient-matched PBMCs were isolated and activated using CD3/28. After five days, the keratinocytes were fluorescently labeled and co-cultured with activated or resting PBMCs. A fluorescent DNA-binding dye was introduced to identify cells with compromised membrane integrity, in order to visualize, track and quantify the cytotoxic action of activated PBMCs towards keratinocytes using live-cell imaging.
PBMCs were isolated using Ficol according to standard protocol. Cells were frozen in liquid nitrogen until further usage.
Patient PBMCs (200'000 / well / 200 µl) were stimulated in U-shape 96-well plates in the presence or absence of CD3/28 (Gibco Dynabeads, #11161D) at a ratio of 1:1, in X-VIVO 15 (Lonza, #881026) for 5 days at 37 °C / 5% CO2. On day 4 of PBMC stimulation, hair-follicle derived keratinocytes from the same patient were plated on Collagen-I coated 96-well plates at a density of 5'000 - 10000 / well (depending on the proliferation rate, patient specific). On day 5 of PBMC stimulation, keratinocytes were fluorescently labeled (Celltracker Red; Invitrogen #C34552) according to the manufacturer's recommendation. Activated or non-activated ("resting") PBMCs were then added to the keratinocytes at a ratio of 1:1, after magnetic removal of CD3/28 beads where necessary. Tofacitinib (CST, #14703) or control (DMSO) was added in the indicated concentration as well as Celltox Green (Promega, G8731, 1:8000 final dilution) to reach a final volume of 200 µl per well. Every 2 hours images were acquired using a live cell analysis system (Incucyte Sx3, Sartorius) for 72 hours at 37 °C / 5% CO2. Quantification of dead keratinocytes (Celltox Green+ / Celltracker Red+) was performed using the proprietary analysis software (Incucyte, Sartorius).

In the case of `C[C@@H]1CCN(C(=O)CC#N)C[C@@H]1N(C)c1ncnc2[nH]ccc12` [Tofacitinib], the “peak plasma concentrations achieved (time after administration)” value [1] is given as 30 to 60 min, the “therapeutic intervention in DRESS” value (DRESS) is given as “successful” and the “clinical and histological disease severity” value (mouse model of TEN; oral administration) is given as “ameliorated clinical and histological disease severity”. For the same compound, the “macroscopic disease severity (clinical assessment score: Nikolsky sign, edema, rubor)” value (mouse model of TEN; oral gavage twice daily, Tofacitinib 30 mg/kg or Baricitinib 10 mg/kg, day 1 and 3 after s.c. smac mimetic injection) was “markedly reduced macroscopic disease severity”, the cell death (primary keratinocytes; Tofacitinib in combination with resting (non-activated) PBMCs) was “no indications of increased cell death” and the keratinocyte cytotoxicity (primary keratinocytes; co-culture of primary keratinocytes with CD3/28 activated PBMCs from the same TEN patient, ratio 1:1, Tofacitinib 50 or 5 (nmol/nM), imaging every 2h for 72 hours, Celltox Green positive keratinocytes) was “reduced keratinocyte-directed cytotoxicity; also recorded: able to dampen the keratinocyte mediated cytotoxicity; also recorded: ameliorates T-cell mediated keratinocyte cytotoxicity; also recorded: dose-dependent inhibition of keratinocyte cytotoxicity”. The keratinocyte cell death (primary keratinocytes; keratinocytes exposed to Tofacitinib alone) was “did not induce keratinocyte cell death”.
